Assay results published in patent US20200256860A1, “PRINTABLE HYDROGELS FOR BIOMOLECULE IMMOBILIZATION AND STABILIZATION” (priority 2019, published 2020).

Assays:
[1] = target: T1, TEM-1 β-lactamase (Escherichia coli, UniProt P62593); format: biochemical; conditions: promiscuous aggregating inhibitors
[2] = target: T1, TEM-1 β-lactamase; format: biochemical; conditions: promiscuous aggregating inhibitors, printed hydrogel array, starting concentration 100 μM
Procedure: Images were taken with a Canon DSLR camera (operated in manual focus mode without flash) after 25 min. […] Extracted images were inverted and converted to 8 bit grayscale images. […] Calculation of IC50 values was carried out in OriginPro by plotting the calculated percentage inhibition against the added inhibitor concentration.
Intensity distributions are measured using dynamic light scattering (normalized to maximum intensity).

[3] = Aggregate size and polydispersity by dynamic light scattering; format: physicochemical; conditions: 100 μM solutions, DLS
Procedure: Following, to assess the capacity of the printed hydrogels to differentiate between specific and non-specific inhibition, the confirmed promiscuous inhibitors rottlerin and BIS IX (both kinase inhibitors) and tetraiodophenolphthalein (TIPT, another established aggregate forming compound) were tested against TEM-1 β-lactamase (an isoform of β-lactamase) both in solution (modeling a conventional microplate assay) and using a printed hydrogel array. […] In this way, the size selectivity of the printed hydrogel layer excludes the promiscuous inhibitors from accessing the enzyme encapsulated in the hydrogel and thus avoids the false positive hits observed in solution assays. […] Intensity distributions are measured using dynamic light scattering (normalized to maximum intensity).

[4] = Long-term stability studies (storage at room temperature); format: physicochemical; conditions: hydrogel-entrapped enzyme, at least three months
Procedure: Printed enzyme samples were stored in a closed, dark container at room temperature for time periods ranging from 7 days up to 3 months. Image acquisition and analysis was performed as described previously for the entrapment and proteinase K degradation studies. The intensity of each sample was measured and presented as a ratio of the corresponding control image (freshly printed).

[5] = target: proteinase K (Parengyodontium album, UniProt P06873); assay: Protease protection studies; format: physicochemical; conditions: 2 hours
Procedure: 10 μL of a 2 mg/mL proteinase K solution (prepared in 10 mM PBS and 1 mM CaCl2) was pipetted onto the printed enzyme samples both with and without hydrogel encapsulation. The samples were incubated in a closed container for 2 hours at room temperature, after which substrate solutions were pipetted onto the treated samples at the volumes listed in Table 1. Image acquisition and analysis was performed as described for the entrapment studies. The intensity of each sample was measured and presented as a ratio of the corresponding control image (untreated with protease).

T1 sequence (P62593 24-286 limits assumed): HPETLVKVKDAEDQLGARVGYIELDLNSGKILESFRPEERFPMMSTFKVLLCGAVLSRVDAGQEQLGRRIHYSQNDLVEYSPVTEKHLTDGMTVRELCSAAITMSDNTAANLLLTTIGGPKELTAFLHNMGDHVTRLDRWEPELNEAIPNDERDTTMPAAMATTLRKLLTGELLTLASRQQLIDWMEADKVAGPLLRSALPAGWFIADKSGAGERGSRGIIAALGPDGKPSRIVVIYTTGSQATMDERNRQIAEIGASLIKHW
Chain of proteinase K (P06873 106-384, species assumed): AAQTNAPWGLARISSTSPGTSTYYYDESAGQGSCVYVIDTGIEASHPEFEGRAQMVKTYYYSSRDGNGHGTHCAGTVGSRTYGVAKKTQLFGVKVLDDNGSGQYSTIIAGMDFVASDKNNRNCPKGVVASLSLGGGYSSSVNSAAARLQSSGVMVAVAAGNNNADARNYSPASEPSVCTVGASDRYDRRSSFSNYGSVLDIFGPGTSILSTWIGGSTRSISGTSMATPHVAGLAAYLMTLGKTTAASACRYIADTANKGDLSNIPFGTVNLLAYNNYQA

Row | Compound | Inhibition of β-lactamase in the solution-based assay [1] | Inhibition of β-lactamase in the hydrogel-based assay [2] | Aggregate size [3] | Polydispersity [3] | Activity retained after storage [4] | Activity retained after proteinase K ([5]; enzyme printed directly on nitrocellulose without hydrogel (printed alone)) | Activity retained after proteinase K ([5]; enzyme printed with POH in the absence of gel formation)
1 | CC(=O)c1c(O)c(C)c(O)c(Cc2c(O)c3c(c(C(=O)/C=C/c4ccccc4)c2O)OC(C)(C)C=C3)c1O [Rottlerin, rottlerin] | inhibited β-lactamase | no specific inhibition | 188 ± 1 nm | 0.24 ± 0.01 |  |  | 
2 | alkaline phosphatase |  |  |  |  | ~100% | ~40% | > 80%
3 | Cn1cc(C2=C(c3cn(CCCSC(=N)N)c4ccccc34)C(=O)NC2=O)c2ccccc21 [BIS IX] | inhibited β-lactamase | no specific inhibition | 365 ± 9 nm | 0.36 ± 0.02 |  |  | 
